Common to all, as to test: NCI anticancer screen, dose series, 48 h
Assay [1] concerns A498 renal.
Assay [2] deals with BT-549 breast.
Assay [3] deals with CAKI-1 renal.
Assay [4] has as its system CCRF-CEM leukemia.
Assay [5] has as its system HCT-15 colon.
Assay [6] relates to HL-60(TB) leukemia.
Assay [7] has as its system MALME-3M melanoma.
Assay [8] relates to SF-539 CNS.
For assay [9], the system named is SNB-75 CNS.
Assay [10] concerns TK-10 renal.

TGI data for 5 compounds are collected here from PubChem BioAssay (NCI).

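Grown in 96-well plates, cells were treated for 48 hours with each compound at five concentrations. Insufficient inhibition: endpoint recorded as highest concentration tested. The concentration for full growth arrest is given as TGI.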

Consider `COc1ccc(/C=C2\C(=O)N(C3OC(COC(C)=O)C(OC(C)=O)C(OC(C)=O)C3OC(C)=O)c3ccccc3N=C2N)cc1` (stereo not given), for which the TGI in assay [1] was more than 100 µM; in [2] it was 71.6 µM; in assay [3], more than 100 µM; in assay [4], more than 100 µM; in [5], more than 100 µM; in [6], 41.9 µM. In addition, the TGI is 84.5 µM in assay [7], 21.4 µM in assay [8], 54 µM in assay [9] and 99.2 µM in [10].

As for `CCOC(=O)C1(C(=O)OCC)Nc2cccnc2N(C)N1`, the TGI in assay [1] was 52.4 µM; in assay [2] it was more than 100 µM; in assay [3], 36.1 µM; in [4], 44.6 µM; in assay [5], 36.2 µM; in [6], 58 µM. Moreover, the TGI in [7] is more than 100 µM; in assay [8], 30.7 µM; in assay [9], more than 100 µM; in assay [10] it was 40.1 µM.

For `COc1ccc2nc(N/N=C/C(C)=N/Nc3cc(C)c4cc(OC)ccc4n3)cc(C)c2c1`, the TGI in assay [1] is more than 80.9 µM; in assay [2], more than 100 µM; in assay [3] it was 76.1 µM; in [4], 5.45 µM; in [5], 25.1 µM; in [6], 40.6 µM. The TGI stood at 76.4 µM in [7], 34.7 µM in assay [8], 47.7 µM in assay [9] and 69.4 µM in [10].

For `Cc1nc(N)nc(N)c1-c1ccc(Cl)c(Cl)c1`, the TGI in assay [1] was more than 80.6 µM; in assay [2] it was more than 100 µM; in assay [3], more than 100 µM; in [4] it was more than 100 µM; in [5], more than 100 µM; in [6] it was more than 88.1 µM. In addition, the TGI is more than 87.7 µM in assay [7], more than 100 µM in assay [8], more than 76.4 µM in [9] and more than 51.9 µM in assay [10].

With `CN1CC[C@@]2(c3cccc(O)c3)CC(=O)/C(=C/c3ccccc3)[C@H]1C2`, the TGI in [1] is 30.4 µM; in assay [2], 26.7 µM; in [3] it was 15.4 µM; in [4], more than 27.7 µM; in assay [5], 41.2 µM; in assay [6], 7.73 µM. For the same compound, the TGI in assay [7] worked out at 33.5 µM; in assay [8] it was 35.3 µM; in assay [9], 7.09 µM; in [10], 29.2 µM.
